# Source: article PMC6971011, “Conformational changes in Apolipoprotein N-acyltransferase (Lnt)” (Scientific Reports, 2020)
# Biological target: T1, Apolipoprotein N-acyltransferase (Lnt); Lnt-C1, Lnt-C2 (Escherichia coli, UniProt P23930)
# T1 construct: full length; C1: fifteen-residue C-terminal tail with His8-tag kept; C2: N-terminal His6-tag TEV-cleaved, two extra N-terminal residues; expressed in E. coli C41, detergent-purified
# Test: X-ray crystallography ([…] Å) and LC-MS/MS of tryptic peptide
# Type: binding
# Details: covalent; thioester on active site C387 (acyl-enzyme intermediate, co-purified from expression host); Lnt-C1 chain B; vapor diffusion, pH 6.4
compound,measurement,value
CCCCCCCCCCCCCCCC(=O)O [palmitate],X-ray crystallography (3.5 Å) and LC-MS/MS of tryptic peptide,mass spectrometry analysis (Fig. 3D) on purified Lnt that identified a palmitoyl modification at position C387
